Tests used:
[1] = test system: M21-L human melanoma cells (αv-, αvβ3-); assay: MTT in vitro cytotoxicity assay, M21-L; type: cell-based; conditions: 2 h treatment and additional 70 h incubation
Experimental: (§1) The human melanoma M21 and M21-L cells were kindly provided by Dr. David Cheresh and The Scripps Research Institute (La Jolla, CA, USA). Cells were cultured in RPMI 1640 supplemented with 10% fetal bovine serum (FBS), 1% L-glutamine and 1% Penicillin/Streptomycin in a humidified incubator at 37 °C and 5% CO2.
(§2) Cell viability was quantified by 3-(4,5-dimethylthiazol-2-yl)-2,5-diphenyltetrazolium bromide (MTT) assay. Cells were plated at a density of 3000 cells/well (Nunc® MicroWell® flat-bottom 96-well plate, Thermo Fisher Scientific) and incubated overnight to allow adherence. The following day, cells were treated with serial dilutions of each compound or 0.1% DMSO as control. After 2 h of incubation, cells were centrifuged at 1200 rpm for 5 min; supernatant containing the compounds was removed and replaced with fresh medium. Cells were further incubated for 70 h as described above, and at the end of treatment, 5 µL of MTT (5 mg/mL in deionized H2O, #M5655, Sigma Aldrich) were added to each well and the cells incubated for another 2 h. Finally, 100 µL of lysis buffer (10% SDS, 10 mM HCl) were added, and cells were placed in the incubator overnight for the formazan crystal solubilization. Absorbance at 540 nm was measured using FLUOstar Omega (BMG Labtech, Ortenberg, Germany) instrument and the growth inhibition ratio was calculated. Blank controls detecting cell-free media absorbance were performed in parallel. Three experimental replicates were used. The half-maximal inhibitory concentration values (IC50) were obtained from viability curves by fitting data to the four-parameter logistic equation using GraphPad Prism 6 (GraphPad Software, San Diego, CA, USA). The cell viability was expressed as percentage relative to the respective control conditions.

[2] = biological target: T1, bovine spleen cathepsin B (Bos taurus, UniProt P07688); assay: cathepsin B cleavage assay; type: in vitro ADME; conditions: cathepsin B 1 U/mL, 37 °C, pH 5.5, 5 µM substrate
T1 construct: cathepsin B (bovine spleen cathepsin B, #C6286, Sigma Aldrich); purchased Sigma Aldrich C6286; host or cells: bovine spleen
Experimental: L-cysteine (#C8152, Sigma Aldrich) was dissolved in acetate buffer/ethylenediaminetetraacetic acid (EDTA) 1 mM pH 5.5 to get a solution with a final concentration of L-cysteine of 28 mM. This solution was used to dilute an aliquot of cathepsin B (bovine spleen cathepsin B, #C6286, Sigma Aldrich) to 1.11 U/mL. Sample containing cathepsin B was pre-incubated at 37 °C for 15 min and then split into 45-µL aliquots in Eppendorf tubes, two replicates for each incubation time. Aliquots of 5 µL of 50 µM solutions of the substrates prepared in MeOH/H2O (50/50) were added to each tube, to get a final concentration of 5 µM. Tubes corresponding to t = 0 min contained 100 µL of 1% HCOOH in MeOH and were put in an ice bath to stop the reaction. All the other tubes were incubated at 37 °C in an oscillating thermostatic bath and reaction was stopped at the following incubation times: 0.25, 0.5, 1, 2, 4, and 6 h, as described for t = 0 min samples. Samples were centrifuged for 10 min at 14,000 rpm at 4 °C and filtered with regenerated cellulose syringe filters prior to injection in the HPLC-MS system (see Supplementary Materials). […] Substrates and possible metabolites were quantified based on calibration curves prepared in acetate buffer/EDTA/L-cysteine.

[3] = test system: M21 human melanoma cells (αvβ3+); assay: MTT in vitro cytotoxicity assay, M21; type: cell-based; conditions: for IC50: Homo sapiens, MTT, 2 h treatment and additional 70 h incubation
Experimental: as §1, §2

[4] = plasma metabolic stability assay, mouse plasma; type: in vitro ADME; conditions: 24 h
Experimental: (§3) The sample preparation and the metabolic analysis of the conjugates was carried out similarly to a previously described method. In a 96-well plate, the stock solutions (3 mM in dimethyl sulfoxide (DMSO)) of the conjugates and the control compound were diluted with 250 μL of plasma (pooled heparinized mouse ICR/CD1 M plasma #08 or human plasma #MPLLIHP-M, #BHR1003077, BioreclamationIVT, Westbury, NY, USA) to give a 3-µM concentration and incubated at 37 °C. At each sampling time an aliquot of 30 µL was transferred into a 96-deep-well plate and the reaction was stopped with 120 µL of acetonitrile (ACN) containing 0.1% HCOOH and 400 ng/mL of warfarin as internal standard (IS). This mixture was centrifuged at 1100× g for 30 min at 4 °C and 50 µL of supernatants were transferred into a clean 96-deep-well plate and diluted with 50 µL of 0.1% HCOOH in water. Samples were stored at −80 °C prior to UPLC-HRMS analysis (see Supplementary Materials). The stability was determined based on the disappearance of the test compound as a function of incubation time, using area ratios (analyte peak area vs internal standard peak area). The elimination constant k was calculated by plotting mean disappearance values on a semi-logarithmic scale and fitting with a best fit linear regression using Microsoft Excel. The half-life (t1/2) expressed in hours was determined using equation: t1/2 = ln2/(−k). […]

[5] = plasma metabolic stability assay, human plasma; type: in vitro ADME; conditions: 24 h
Experimental: as §3

human αvβ3 integrin = biological target: T2, human αvβ3 integrin (Homo sapiens, UniProt P05106+P06756, DEL719-788); assay: competitive ELISA-like integrin binding assay (immobilized vitronectin, soluble integrin); conditions: competition with immobilized vitronectin
T2 construct: purchased R&D Systems 3050-AV-050

Structure (SMILES) | IC50 [1] [nM] | cleavage and metabolism upon incubation with cathepsin B [2] | IC50 [3] [nM] | stability in mouse plasma [4] | stability in human plasma [5] | IC50 (human αvβ3 integrin) [pM] | fold higher biological activity than cryptophycin-55 glycinate ([3]; M21 and M21-L cells, same test conditions)
COc1ccc(C[C@H]2NC(=O)/C=C/C[C@@H]([C@H](C)[C@@H](OC(=O)CNC(=O)[C@@H]3CCCN3C(=O)CN)[C@@H](Cl)c3ccccc3)OC(=O)[C@H](CC(C)C)OC(=O)C(C)(C)CNC2=O)cc1Cl [compound 12, Gly-Pro-Cry-55gly] | 0.039 ± 0.01 | not further metabolized to cryptophycin-55 glycinate | 0.15 ± 0.03 |  |  |  | 
COc1ccc(C[C@H]2NC(=O)/C=C/C[C@@H]([C@H](C)[C@@H](OC(=O)CN)[C@@H](Cl)c3ccccc3)OC(=O)[C@H](CC(C)C)OC(=O)C(C)(C)CNC2=O)cc1Cl [compound 4, Cryptophycin-55 glycinate] | 0.14 ± 0.08 |  | 0.75 ± 0.11 | markedly improved stability compared to the parent compound | good stability |  | 
[N-]=[N+]=NCCC(=O)NCCCC[C@@H]1NC(=O)[C@@H](Cc2ccccc2)NC(=O)[C@H](CC(=O)O)NC(=O)CNC(=O)[C@H](CCCNC(=N)N)NC1=O [compound 9] |  |  |  |  |  | 710 | 
COc1ccc(C[C@H]2NC(=O)/C=C/C[C@@H]([C@H](C)[C@H]3O[C@@H]3c3ccccc3)OC(=O)[C@H](CC(C)C)OC(=O)C(C)(C)CNC2=O)cc1Cl [compound 2, cryptophycin-52, reference compound] | 0.02 |  | 0.07 | significant metabolism |  |  | 10-20 fold
